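Step 1: Grow cells in 96-well plates. Step 2: Expose to compound for 48 hours at 5 concentrations. Step 3: Interpolate endpoints linearly; if unreached, use highest concentration. Here, GI50 denotes the concentration required for 50% inhibition of growth.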 Activity calls are given as the source filed them. Cut-off read from the data, not from the text of the source: active = GI50 up to about 1.1 µM and inactive = higher.
Key:
Experiment in all cases: NCI tumour cell line growth inhibition, 48 h
CCRF-CEM = tested on: CCRF-CEM
OVCAR-8 = tested on: OVCAR-8
RXF 393 = tested on: RXF 393
IGROV-1 = tested on: IGROV-1
SK-OV-3 = tested on: SK-OV-3
SK-MEL-28 = tested on: SK-MEL-28
NCI-H23 = tested on: NCI-H23
COLO 205 = tested on: COLO 205
U-251 = tested on: U-251
NCI-H460 = tested on: NCI-H460
HT-29 = tested on: HT-29
OVCAR-3 = tested on: OVCAR-3
MOLT-4 = tested on: MOLT-4
CAKI-1 = tested on: CAKI-1
SF-268 = tested on: SF-268
EKVX = tested on: EKVX
SW-620 = tested on: SW-620
HCT-15 = tested on: HCT-15
HL-60 = tested on: HL-60
OVCAR-4 = tested on: OVCAR-4

Measured: GI50

COC(=O)[C@H](Cc1ccc(OC(C)(C)C)cc1)N[C@H](C)C(=O)N[C@@H](Cc1ccccc1)C(=O)OCc1ccccc1
inactive: CCRF-CEM 40.2 µM | OVCAR-8 52.2 µM | RXF 393 > 100 µM | IGROV-1 > 100 µM | SK-OV-3 > 100 µM | SK-MEL-28 > 100 µM | NCI-H23 > 100 µM | COLO 205 96.6 µM | U-251 > 100 µM | NCI-H460 > 100 µM | HT-29 47.2 µM | OVCAR-3 86.3 µM | MOLT-4 20 µM | CAKI-1 > 100 µM | SF-268 > 100 µM | EKVX > 100 µM | SW-620 > 100 µM | HL-60 45.5 µM | OVCAR-4 > 100 µM
> 100 µM: HCT-15

O=C(Nc1ccccc1F)c1c(O)nc2sccn2c1=O
> 10 µM: HCT-15
inactive: CCRF-CEM > 10 µM | OVCAR-8 > 10 µM | RXF 393 > 10 µM | IGROV-1 > 10 µM | SK-OV-3 > 10 µM | SK-MEL-28 > 10 µM | NCI-H23 > 10 µM | COLO 205 > 10 µM | U-251 > 10 µM | NCI-H460 > 10 µM | HT-29 > 10 µM | OVCAR-3 > 10 µM | MOLT-4 > 10 µM | CAKI-1 > 10 µM | SF-268 > 10 µM | EKVX > 10 µM | SW-620 > 10 µM | HL-60 > 10 µM | OVCAR-4 > 10 µM

N/N=C1\C(OC(=O)Nc2cccc(Cl)c2)=Nc2ccccc21
6.89 µM: HCT-15
inactive: CCRF-CEM 5.93 µM | OVCAR-8 7.31 µM | RXF 393 13 µM | IGROV-1 8.15 µM | SK-OV-3 7.43 µM | SK-MEL-28 14.8 µM | NCI-H23 5.07 µM | COLO 205 6.95 µM | U-251 6.9 µM | NCI-H460 6.9 µM | HT-29 6.59 µM | OVCAR-3 2.6 µM | MOLT-4 6.49 µM | CAKI-1 4.47 µM | SF-268 12.1 µM | EKVX 4.05 µM | SW-620 9.12 µM | HL-60 13.6 µM | OVCAR-4 7.33 µM

C[N+](C)(C)CC1CCCC(C[N+](C)(C)C)C1=O (stereo not given)
0.308 µM: HCT-15
active: CCRF-CEM 0.1 µM | OVCAR-8 0.869 µM | COLO 205 0.374 µM | OVCAR-3 0.703 µM | MOLT-4 0.133 µM | CAKI-1 0.984 µM | SW-620 0.0726 µM | HL-60 0.272 µM | OVCAR-4 0.641 µM
inactive: RXF 393 1.69 µM | IGROV-1 5.24 µM | SK-OV-3 13.7 µM | SK-MEL-28 1.85 µM | NCI-H23 2.42 µM | U-251 3.35 µM | NCI-H460 16.3 µM | HT-29 1.3 µM | SF-268 7.31 µM | EKVX 1.58 µM

Reference: ChEMBL document CHEMBL1201862, “PubChem BioAssay data set” (2004)
